One may read the IC50 as the concentration needed to halve the response being measured. A lower IC50 goes with higher potency.

Experiment [1] addresses T1, IL-17A : IL-17RA binding (Homo sapiens, UniProt Q16552, K93Q).
T1 construct: Name: IL-17A-Flag
Description: IL-17A(FLAG-tagged):IL-17RA(His-tagged) binding disruption Eu-HTRF assay, Protocol 1. The conditions noted are these: FLAG-IL-17A 2.5 nM at 2x final concentration; average if tested more than once. A digest of the protocol: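 IC50 came from a one-site competition fit of the acceptor/donor (665/620 nm) HTRF ratio. His-tagged IL-17RA, Eu-anti-FLAG and D2-anti-His were added after a 1 h rt compound preincubation with FLAG-tagged IL-17A dimer in PBS/0.01% Triton X-100, followed by 2 h at rt before reading.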
A general note: Time-resolved FRET reads energy transfer from a long-lived donor to a nearby acceptor.

Experiment [2] relates to IL-17A-induced G-CSF production in human normal keratinocyte (NHK). Description: NHK assay: IL-17A-induced G-CSF production in normal human keratinocytes. As to conditions: Homo sapiens, Keratinocyte, 24 h, IL-17A 5 ng/mL, average if tested more than once. The class given is cell-based. In outline:
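Stimulus rhIL-17A 5 ng/mL final, premixed 1 h rt with compound; adult NHK, 5% FBS, 0.2% DMSO. Viability by CellTiter-Glo vs DMSO.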

T1 sequence (Q16552 with tags, fused parts or gaps K93Q): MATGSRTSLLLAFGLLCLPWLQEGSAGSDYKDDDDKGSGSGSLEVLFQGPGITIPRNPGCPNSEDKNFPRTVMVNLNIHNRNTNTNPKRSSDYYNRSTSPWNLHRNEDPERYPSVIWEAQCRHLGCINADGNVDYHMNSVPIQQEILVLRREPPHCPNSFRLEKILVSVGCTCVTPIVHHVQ

Consider `CC(C)c1nonc1C(=O)NC(CC(C)(C)C(F)(F)F)c1nc2cc([C@@H](C)NC(=O)CCC(F)(F)F)ccc2[nH]1` (single isomer, unassigned) [Example 57, 4-Isopropyl-N—((S*)-4,4,4-trifluoro-3,3-dimethyl-1-(5-((R)-1-(4,4,4-trifluorobutanamido)ethyl)-1H-benzo[d]imidazol-2-yl)butyl)-1,2,5-oxadiazole-3-carboxamide], for which the IC50 in experiment [1] and in experiment [2] was below 50 nM throughout.

For the compound `C[C@@H](NC(=O)CCC(F)(F)F)c1ccc2[nH]c([C@@H](NC(=O)[C@H]3CC[C@@H]3CF)C3CCC(F)(F)CC3)nc2c1` (single isomer, unassigned) [Example 114], the IC50 in experiment [1] and in experiment [2] was above 100 nM each time.

As for `CC(C)n1nccc1C(=O)N[C@@H](CO[C@@H](C)C(F)(F)F)c1nc2ccc([C@H](NC(=O)CC3CC(F)(F)C3)C3CC3)cc2[nH]1` (relative stereo) [Example 158, N—((R*)-1-(6-((R)-Cyclopropyl(2-(3,3-difluorocyclobutyl)acetamido)methyl)-1H-benzo[d]imidazol-2-yl)-2-(((S)-1,1,1-trifluoropropan-2-yl)oxy)ethyl)-1-isopropyl-1H-pyrazole-5-carboxamide], the half-maximal inhibitory concentration (IC50) in experiment [1] is below 50 nM; in experiment [2], above 100 nM.

Regarding `C[C@@H](NC(=O)CCC(F)(F)F)c1ccc2[nH]c([C@@H](NC(=O)c3cnnn3CC(F)F)C3CCC(F)(F)CC3)nc2c1` [Example 38, N—[(S)-(4,4-Difluorocyclohexyl)-[6-[(1R)-1-(4,4,4-trifluorobutanoylamino)ethyl]-1H-benzimidazol-2-yl]methyl]-3-(2,2-difluoroethyl)triazole-4-carboxamide], the IC50 in experiment [1] and in experiment [2] was above 100 nM each time.

On to `C[C@@H](NC(=O)CCC(F)(F)F)c1ccc2[nH]c([C@@H](NC(=O)c3ccn(CCC(F)(F)F)n3)C3CCC(F)(F)CC3)nc2c1` [Example 2, N—[(S)-(4,4-Difluorocyclohexyl)-[6-[(1R)-1-(4,4,4-trifluorobutanoylamino)ethyl]-1H-benzimidazol-2-yl]methyl]-1-(3,3,3-trifluoropropyl)pyrazole-3-carboxamide], for which the IC50 in experiment [1] and in experiment [2] was above 100 nM each time.

For `O=C(CC1CC(F)(F)C1)N[C@@H](c1ccc2nc([C@@H](NC(=O)c3nonc3C3CC3)[C@H]3CCCC(F)(F)C3)[nH]c2c1)C1CC1` [Example 170, 4-Cyclopropyl-N—((S)-(6-((R)-cyclopropyl(2-(3,3-difluorocyclobutyl)acetamido)methyl)-1H-benzo[d]imidazol-2-yl)((S)-3,3-difluorocyclohexyl)methyl)-1,2,5-oxadiazole-3-carboxamide], the IC50 in experiment [1] and in experiment [2] was below 50 nM throughout.

Consider `Cc1c(C(=O)N[C@H](c2nc3cc([C@@H](C)NC(=O)CCC(F)(F)F)ccc3[nH]2)C2CCC(F)(F)CC2)cnn1CCC(F)(F)F` [Example 5, N—[(S)-(4,4-Difluorocyclohexyl)-[6-[(1R)-1-(4,4,4-trifluorobutanoylamino)ethyl]-1H-benzimidazol-2-yl]methyl]-5-methyl-1-(3,3,3-trifluoropropyl)pyrazole-4-carboxamide], for which the half-inhibitory concentration (IC50) in experiment [1] and in experiment [2] was above 100 nM each time.

Consider `CC(C)n1nccc1C(=O)N[C@@H](COC(C)C(F)(F)F)c1nc2ccc([C@H](NC(=O)CC3CC(F)(F)C3)C3CC3)cc2[nH]1` (relative stereo) [Example 156, N—((R*)-1-(6-((R)-Cyclopropyl(2-(3,3-difluorocyclobutyl)acetamido)methyl)-1H-benzo[d]imidazol-2-yl)-2-(((R)-1,1,1-trifluoropropan-2-yl)oxy)ethyl)-1-isopropyl-1H-pyrazole-5-carboxamide], for which the IC50 in experiment [1] and in experiment [2] was 50 to 100 nM throughout.

`CC(NC(=O)CCC(F)(F)F)c1ccc2nc([C@H](CC(C)(C)C(F)(F)F)NC(=O)c3ccnn3CCC(F)(F)F)[nH]c2c1` (single isomer, unassigned) [Example 229, N—((S)-4,4,4-Trifluoro-3,3-dimethyl-1-(6-((S*)-1-(4,4,4-trifluorobutanamido)ethyl)-1H-benzo[d]imidazol-2-yl)butyl)-1-(3,3,3-trifluoropropyl)-1H-pyrazole-5-carboxamide]: the IC50 in experiment [1] and in experiment [2] was above 100 nM throughout.

Take `C[C@@H](NC(=O)CCC(F)(F)F)c1ccc2[nH]c([C@@H](NC(=O)c3cc(CCC(F)(F)F)on3)C3CCC(F)(F)CC3)nc2c1` [Example 217, N—((S)-(4,4-Difluorocyclohexyl)(5-((R)-1-(4,4,4-trifluorobutanamido)ethyl)-1H-benzo[d]imidazol-2-yl)methyl)-5-(3,3,3-trifluoropropyl)isoxazole-3-carboxamide]: the IC50 in experiment [1] and in experiment [2] was above 100 nM each time.

Consider `Cc1nonc1C(=O)NC(CC(C)(C)C(F)(F)F)c1nc2cc([C@@H](C)NC(=O)CCC(F)(F)F)ccc2[nH]1` (single isomer, unassigned) [Example 198, 4-Methyl-N—((S*)-4,4,4-trifluoro-3,3-dimethyl-1-(5-((R)-1-(4,4,4-trifluorobutanamido)ethyl)-1H-benzo[d]imidazol-2-yl)butyl)-1,2,5-oxadiazole-3-carboxamide], for which the half-maximal inhibitory concentration (IC50) in experiment [1] is 50 to 100 nM; in experiment [2] it was above 100 nM.

Take `Cc1nonc1C(=O)N[C@H](c1nc2cc([C@H](NC(=O)CCC(F)(F)F)C3CC3)ccc2[nH]1)[C@@H]1CCCC(F)(F)C1` [Example 263, N—((S)-(5-((R)-Cyclopropyl(4,4,4-trifluorobutanamido)methyl)-1H-benzo[d]imidazol-2-yl)((R)-3,3-difluorocyclohexyl)methyl)-4-methyl-1,2,5-oxadiazole-3-carboxamide]: the figures for the concentration for half-maximal inhibition (IC50) in experiment [1] and in experiment [2] were below 50 nM and 50 to 100 nM, respectively.

`C[C@@H](NC(=O)CCC(F)(F)F)c1ccc2[nH]c([C@@H](NC(=O)c3cnnn3CCC3CC3)C3CCC(F)(F)CC3)nc2c1` [Example 13, 3-(2-Cyclopropylethyl)-N—[(S)-(4,4-difluorocyclohexyl)-[6-[(1R)-1-(4,4,4-trifluorobutanoylamino)ethyl]-1H-benzimidazol-2-yl]methyl]triazole-4-carboxamide]: the IC50 in experiment [1] and in experiment [2] was above 100 nM in each case.

As to `Cc1nonc1C(=O)N[C@@H](COC1CC(F)(F)C1)c1nc2ccc([C@H](NC(=O)CC3CC(F)(F)C3)C3CC3)cc2[nH]1` [Example 256, N—((R)-1-(6-((R)-Cyclopropyl(2-(3,3-difluorocyclobutyl)acetamido)methyl)-1H-benzo[d]imidazol-2-yl)-2-(3,3-difluorocyclobutoxy)ethyl)-4-methyl-1,2,5-oxadiazole-3-carboxamide], the IC50 in experiment [1] and in experiment [2] was above 100 nM throughout.

In the case of `C[C@@H](NC(=O)CCC(F)(F)F)c1ccc2[nH]c([C@@H](NC(=O)c3cn(CCCC(F)(F)F)nn3)C3CCC(F)(F)CC3)nc2c1` [Example 21, N—[(S)-(4,4-Difluorocyclohexyl)-[6-[(1R)-1-(4,4,4-trifluorobutanoylamino)ethyl]-1H-benzimidazol-2-yl]methyl]-1-(4,4,4-trifluorobutyl)triazole-4-carboxamide], the IC50 in experiment [1] and in experiment [2] was above 100 nM in each case.

`C[C@@H](O[C@H](C)C(F)(F)F)[C@H](NC(=O)c1nonc1C1CC1)c1nc2ccc([C@H](NC(=O)C[C@H]3CC3(F)F)C3(C#N)CC3)cc2[nH]1` [Example 269, N-((1R,2R)-1-(6-((S)-(1-Cyanocyclopropyl)(2-((S)-2,2-difluorocyclopropyl)acetamido)methyl)-1H-benzo[d]imidazol-2-yl)-2-(((R)-1,1,1-trifluoropropan-2-yl)oxy)propyl)-4-cyclopropyl-1,2,5-oxadiazole-3-carboxamide]: the half-inhibitory concentration (IC50) in experiment [1] and in experiment [2] was below 50 nM each time.

In the case of `O=C(CC1CC(F)(F)C1)N[C@@H](c1ccc2nc([C@@H](NC(=O)c3nonc3C3CC3)[C@@H]3CCCC(F)(F)C3)[nH]c2c1)C1CC1` [Example 171, 4-Cyclopropyl-N—((S)-(6-((R)-cyclopropyl(2-(3,3-difluorocyclobutyl)acetamido)methyl)-1H-benzo[d]imidazol-2-yl)((R)-3,3-difluorocyclohexyl)methyl)-1,2,5-oxadiazole-3-carboxamide], the values for the IC50 in experiment [1] and in experiment [2] were 50 to 100 nM and below 50 nM, respectively.

Turning to `C[C@@H](NC(=O)CCC(F)(F)F)c1ccc2[nH]c([C@@H](NC(=O)c3cnn(CCOC(F)F)c3)C3CCC(F)(F)CC3)nc2c1` [Example 27, N—[(S)-(4,4-Difluorocyclohexyl)-[6-[(1R)-1-(4,4,4-trifluorobutanoylamino)ethyl]-1H-benzimidazol-2-yl]methyl]-1-[2-(difluoromethoxy)ethyl]pyrazole-4-carboxamide], the IC50 in experiment [1] and in experiment [2] was above 100 nM in each case.

On to `CC(C)(C[C@H](NC(=O)c1nonc1C1CC1)c1nc2ccc([C@H](NC(=O)CCC(F)F)C3CC3)cc2[nH]1)C(F)(F)F` [Example 185, 4-Cyclopropyl-N—((S)-1-(6-((R)-cyclopropyl(4,4-difluorobutanamido)methyl)-1H-benzo[d]imidazol-2-yl)-4,4,4-trifluoro-3,3-dimethylbutyl)-1,2,5-oxadiazole-3-carboxamide], for which the figures for the IC50 in experiment [1] and in experiment [2] were below 50 nM and above 100 nM, respectively.

The values above are taken from patent publication US20240376085A1 (Janssen Pharmaceutica NV, priority 2021, published 2024).
